Data: paper PMC5895803, “Inhibition of cancer stem cell like cells by a synthetic retinoid” (Nature Communications, 2018)
Converted amounts (≈) assume the structure as drawn. “Also recorded” adds a separate entry of the source.

Tests used:
CYP 1A2 = biological target: T1, CYP 1A2 (Homo sapiens, UniProt P05177); experiment: Cytochromes enzyme inhibition assay, human liver microsomes; assay type: in vitro ADME; settings: substrate phenacetin (30 µM)
T1 construct: from tissue; host or cells: human liver microsomes
T1 sequence (P05177 whole entry): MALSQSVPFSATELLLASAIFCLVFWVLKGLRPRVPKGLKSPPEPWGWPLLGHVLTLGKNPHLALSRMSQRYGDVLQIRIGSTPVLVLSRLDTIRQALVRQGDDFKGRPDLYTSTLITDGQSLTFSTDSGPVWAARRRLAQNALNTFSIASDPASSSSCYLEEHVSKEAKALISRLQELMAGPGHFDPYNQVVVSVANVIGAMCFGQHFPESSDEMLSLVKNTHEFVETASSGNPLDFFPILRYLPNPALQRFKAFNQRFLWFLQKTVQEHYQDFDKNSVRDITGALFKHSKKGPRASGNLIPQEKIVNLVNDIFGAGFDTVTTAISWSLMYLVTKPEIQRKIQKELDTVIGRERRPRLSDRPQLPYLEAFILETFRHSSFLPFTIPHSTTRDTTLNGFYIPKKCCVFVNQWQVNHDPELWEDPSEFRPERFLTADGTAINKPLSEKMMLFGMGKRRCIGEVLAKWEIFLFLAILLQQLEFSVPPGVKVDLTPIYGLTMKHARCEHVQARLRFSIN

CYP 2C9 = biological target: T2, CYP 2C9 (Homo sapiens, UniProt P11712); experiment: as above; assay type: in vitro ADME; settings: substrate diclofenac (10 µM)
T2 construct: from tissue; host or cells: human liver microsomes
T2 sequence (P11712 whole entry): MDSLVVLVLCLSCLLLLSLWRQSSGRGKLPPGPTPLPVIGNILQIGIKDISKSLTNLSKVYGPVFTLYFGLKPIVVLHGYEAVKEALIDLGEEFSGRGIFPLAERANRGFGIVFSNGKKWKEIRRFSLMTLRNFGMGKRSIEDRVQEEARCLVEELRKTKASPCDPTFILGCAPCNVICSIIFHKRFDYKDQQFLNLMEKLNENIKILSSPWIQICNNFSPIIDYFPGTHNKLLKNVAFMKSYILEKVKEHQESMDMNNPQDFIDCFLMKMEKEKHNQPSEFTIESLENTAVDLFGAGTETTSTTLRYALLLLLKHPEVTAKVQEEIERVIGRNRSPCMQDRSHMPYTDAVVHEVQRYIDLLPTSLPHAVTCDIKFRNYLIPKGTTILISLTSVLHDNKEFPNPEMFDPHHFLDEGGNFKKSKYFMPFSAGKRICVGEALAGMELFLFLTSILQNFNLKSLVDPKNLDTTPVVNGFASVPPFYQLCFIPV

CYP 2C19 = biological target: T3, CYP 2C19 (Homo sapiens, UniProt P33261); experiment: as above; assay type: in vitro ADME; settings: substrate S-mephenytoin (35 µM)
T3 construct: from tissue; host or cells: human liver microsomes
T3 sequence (P33261 whole entry): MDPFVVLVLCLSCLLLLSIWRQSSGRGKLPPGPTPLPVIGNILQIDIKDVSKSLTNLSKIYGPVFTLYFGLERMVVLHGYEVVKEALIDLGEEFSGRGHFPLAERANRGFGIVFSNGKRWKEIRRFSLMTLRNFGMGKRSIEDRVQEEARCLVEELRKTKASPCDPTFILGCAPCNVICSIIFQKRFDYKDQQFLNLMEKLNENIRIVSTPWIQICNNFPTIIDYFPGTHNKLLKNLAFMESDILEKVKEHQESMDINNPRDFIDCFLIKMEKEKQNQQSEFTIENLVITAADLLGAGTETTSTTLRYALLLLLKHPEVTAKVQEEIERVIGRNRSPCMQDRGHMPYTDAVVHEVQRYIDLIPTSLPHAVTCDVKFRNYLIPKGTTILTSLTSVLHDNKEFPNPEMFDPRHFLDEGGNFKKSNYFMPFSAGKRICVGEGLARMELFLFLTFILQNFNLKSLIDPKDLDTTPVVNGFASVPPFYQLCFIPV

CYP 2D6 = biological target: T4, CYP 2D6 (Homo sapiens, UniProt P10635); experiment: as above; assay type: in vitro ADME; settings: substrate bufuralol (10 µM)
T4 construct: from tissue; host or cells: human liver microsomes
T4 sequence (P10635 whole entry): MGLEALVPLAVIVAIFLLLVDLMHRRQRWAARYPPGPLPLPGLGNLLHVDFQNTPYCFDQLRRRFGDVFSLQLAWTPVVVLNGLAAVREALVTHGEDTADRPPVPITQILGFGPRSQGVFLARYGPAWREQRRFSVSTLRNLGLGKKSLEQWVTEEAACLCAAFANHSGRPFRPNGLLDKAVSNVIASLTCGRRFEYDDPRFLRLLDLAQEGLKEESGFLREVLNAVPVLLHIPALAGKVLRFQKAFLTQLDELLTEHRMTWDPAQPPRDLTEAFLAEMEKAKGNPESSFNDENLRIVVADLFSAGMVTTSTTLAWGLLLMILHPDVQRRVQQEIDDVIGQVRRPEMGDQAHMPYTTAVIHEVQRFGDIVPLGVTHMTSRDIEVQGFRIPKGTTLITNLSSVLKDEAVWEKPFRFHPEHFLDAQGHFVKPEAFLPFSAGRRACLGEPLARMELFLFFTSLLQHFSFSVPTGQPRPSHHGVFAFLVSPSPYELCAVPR

CYP 3A4 = biological target: T5, CYP 3A4 (Homo sapiens, UniProt P08684); experiment: as above; assay type: in vitro ADME
T5 construct: from tissue; host or cells: human liver microsomes
T5 sequence (P08684 whole entry): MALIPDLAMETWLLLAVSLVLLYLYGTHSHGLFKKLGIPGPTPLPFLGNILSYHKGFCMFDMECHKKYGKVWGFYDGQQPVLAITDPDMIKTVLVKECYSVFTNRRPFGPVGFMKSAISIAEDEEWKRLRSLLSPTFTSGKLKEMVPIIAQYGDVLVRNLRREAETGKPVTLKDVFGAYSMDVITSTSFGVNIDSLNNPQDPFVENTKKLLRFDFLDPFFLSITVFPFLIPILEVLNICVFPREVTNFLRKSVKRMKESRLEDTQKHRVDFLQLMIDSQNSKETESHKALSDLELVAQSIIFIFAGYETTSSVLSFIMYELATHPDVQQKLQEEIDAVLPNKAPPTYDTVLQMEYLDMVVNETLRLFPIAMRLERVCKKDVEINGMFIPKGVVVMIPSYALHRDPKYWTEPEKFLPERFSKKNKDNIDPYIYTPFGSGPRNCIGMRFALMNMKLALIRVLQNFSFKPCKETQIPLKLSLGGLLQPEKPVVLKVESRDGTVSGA

HaCaT cells = experiment: Non-cancerous human epidermal HaCaT cells, 2D rigid dishes and 3D soft fibrin gels; assay type: cell-based; settings: for HaCaT cell numbers on 2D rigid plastic / HaCaT colony growth in 3D soft fibrin gel: 10 μM; for HaCaT colony growth in 3D soft fibrin gel: day 7; for Inhibitory effects towards non-cancerous HaCaT cells: 2D rigid dishes and 3D soft fibrin gels
Description: Supplementary Figure 21. WYC-209 has less inhibitory effects on non-cancerous human epidermal cell line HaCaT. (a) Non-cancerous human epidermal HaCaT cells were seeded into 3D soft fibrin gel and treated with 0.1, 1, or 10 μM of WYC-209, WYC-209A, or WYC-209B on day 0, and colony sizes were quantified on day 7.
Bright field images were representative images of colonies on day 7. Scale bars, 50 μm. (b) Quantitation of cell numbers per view field of HaCaT cells plated on 2D rigid plastic. Cell nucleus were stained with DAPI. None: medium only; DMSO: medium containing 0.1% DMSO. Mean ± s.e.m.; n= 5 samples; 3 separate experiments; * P<0.05, *** P<0.001 (Student’s t-test). Note that even at 10 μM concentration no […]
compounds have less inhibitory effects on these non-cancerous human epidermal […]
(§1) (1 picture or pasted object on this page, not shown here)

B16-F1 TRCs = experiment: Colony growth of B16-F1 TRCs in 90-Pa 3D soft fibrin gels; assay type: cell-based, murine; settings: for IC50 lower / potency higher than that of Tazarotene: B16-F1 TRC growth; for inhibition at 10 µM / IC50: Mus musculus; for inhibition at 10 µM: B16-F1, 10 μM, treated on day 0, day 5; for IC50: B16-F1 in 90-Pa fibrin gels, treated on day 0, colony size on day 5; for Growth after re-plating into new soft fibrin gels without compound: washed out
Water solubility = settings: PBS (pH 7.4), pH 7.4, aqueous buffer, kinetic from dmso stock
hERG channels = hERG channels (Homo sapiens, UniProt Q12809); experiment: Functional hERG blocking assay, patch clamp in CHO hERG cell line
Sequence of hERG channels (Q12809 whole entry): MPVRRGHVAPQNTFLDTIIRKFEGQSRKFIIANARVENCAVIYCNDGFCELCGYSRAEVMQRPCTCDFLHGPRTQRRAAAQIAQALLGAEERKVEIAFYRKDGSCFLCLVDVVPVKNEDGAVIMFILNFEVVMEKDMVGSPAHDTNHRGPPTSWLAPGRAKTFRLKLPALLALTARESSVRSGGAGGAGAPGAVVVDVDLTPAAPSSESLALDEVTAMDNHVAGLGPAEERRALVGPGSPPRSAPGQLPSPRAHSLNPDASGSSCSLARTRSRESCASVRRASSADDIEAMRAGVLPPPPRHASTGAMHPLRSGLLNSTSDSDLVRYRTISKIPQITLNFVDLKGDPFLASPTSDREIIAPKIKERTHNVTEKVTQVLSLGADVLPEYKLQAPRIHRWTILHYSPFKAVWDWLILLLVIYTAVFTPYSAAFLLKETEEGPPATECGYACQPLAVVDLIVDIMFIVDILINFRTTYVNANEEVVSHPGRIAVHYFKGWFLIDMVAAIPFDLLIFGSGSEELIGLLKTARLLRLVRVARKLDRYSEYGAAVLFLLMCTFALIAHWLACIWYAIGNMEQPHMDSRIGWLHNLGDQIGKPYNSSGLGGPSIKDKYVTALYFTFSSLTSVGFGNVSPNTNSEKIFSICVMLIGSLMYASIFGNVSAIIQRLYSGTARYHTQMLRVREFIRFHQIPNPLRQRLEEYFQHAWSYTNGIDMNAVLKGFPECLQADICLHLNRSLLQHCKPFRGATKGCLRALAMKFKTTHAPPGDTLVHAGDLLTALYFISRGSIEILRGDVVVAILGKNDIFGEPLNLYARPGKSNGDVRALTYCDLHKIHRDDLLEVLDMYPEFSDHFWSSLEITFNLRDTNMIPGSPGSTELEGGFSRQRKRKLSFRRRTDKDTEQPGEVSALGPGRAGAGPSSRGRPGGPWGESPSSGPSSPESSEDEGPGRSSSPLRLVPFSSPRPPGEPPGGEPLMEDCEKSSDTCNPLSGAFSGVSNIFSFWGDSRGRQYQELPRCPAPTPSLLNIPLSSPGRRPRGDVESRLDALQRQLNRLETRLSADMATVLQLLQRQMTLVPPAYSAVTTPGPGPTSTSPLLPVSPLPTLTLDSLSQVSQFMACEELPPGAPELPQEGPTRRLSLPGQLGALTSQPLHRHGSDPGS

[1] = test system: human ovarian cancer A2780; experiment: Colony growth of A2780 TRCs in 90-Pa fibrin gels; assay type: cell-based
Description: (§2) Salmon fibrinogen and thrombin were purchased from Reagent Proteins (CA, USA). 3D fibrin gels were prepared as described previously[5],[6]. In brief, fibrinogen was diluted into 2 mg mL^−1 with T7 buffer (pH 7.4, 50 mM Tris, 150 mM NaCl). Cells were detached from 2D rigid dishes and cell density was adjusted to 10^4 cells per mL. Fibrinogen and cell solution mixture were made by mixing the same volume of fibrinogen solution and cell solution, resulting in 1 mg mL^−1 fibrinogen and 5000 cells per mL in the mixture fibrin gels. A volume of 50 μL cell/fibrinogen mixture was seeded into each well of 96-well plate and mixed well with pre-added 1 μL thrombin (100 U mL^−1). The cell culture plate was then incubated in 37 °C cell culture incubator for 10 min. Finally, 200 μL of DMEM medium containing 10% FBS and antibiotics was added.

human lung cancer A549 = experiment: Colony growth of A549 TRCs in 90-Pa fibrin gels; assay type: cell-based
Description: as §2

[2] = test system: human melanoma MDA-MB-435s; experiment: Colony growth of MDA-MB-435s TRCs in 90-Pa fibrin gels; assay type: cell-based
Description: as §2

[3] = Systemic toxicity in treated mice (body weight, organs); assay type: in vivo, C57BL/6 mice
Excerpt: Four- to six-week-old female and male C57BL/6 mice were used in mice experiment. Mice were randomized into different groups. In metastasis experiment, B16-F1 cell spheroids were selected from 3D 90-Pa fibrin gels and pipetted to single cells. These TRCs were harvested and the cell number was counted under microscopy. The cells were then suspended in PBS with appropriate cell density. Thirty thousand TRCs were intravenously injected into the tail vein of each wild-type C57BL/6 mouse. Five days later, inoculated mice were intravenous implanted with 0.022 mg kg^−1 WYC-209, 0.22 mg kg^−1 WYC-209, or 0.1% DMSO every two days. The mice were euthanized and examined for lung tumor formation at day 30. In treated TRCs injected in vivo experiments, B16-F1 cells were seeded into 3D 90-Pa fibrin gels and treated with 10 µM WYC-209 or 0.1% DMSO on day 3, then isolated treated TRCs colonies on day 5 and pipetted into single cell. 30,000 of TRCs were intravenously injected into the tail vein of each wild-type C57BL/6 mouse. No blinding was performed in the mice experiments.
Lung, liver, spleen, bone, stomach, and brain of C57BL/6 mice were fixed by 4% paraformaldehyde then were embedded in paraffin and cut to ~4 µm thick sections by Thermo FINESSE 325. Organ sections were stained by H&E and slides were evaluated for tumor formation by a veterinary pathologist blinded to sample identity.

[4] = test system: unselected B16-F1 melanoma cells; experiment: Proliferation of unselected B16-F1 cells on 2D rigid dishes; assay type: cell-based, murine; settings: 10 μM, 48 hours
Description: Supplementary Figure 9. WYC-209 detaches adherent melanoma cells on rigid plastic. Murine melanoma cell line B16-F1 were cultured on rigid plastics and treated with 10 μM WYC-209 and observed for 48 hours. Cell nucleus were stained with DAPI. DMSO: medium containing 0.1% DMSO. (a) Representative images of cells stained with DAPI 48 hrs after treatment. Scale bars, 500 μm. (b) Quantitation of cell numbers per view field of B16-F1 treated with WYC-209. Mean ± s.e.m.; n=5 samples; 3 independent experiments; *** P<0.001 (Student’s t-test).
as §1

3T3 fibroblasts = experiment: Non-cancerous 3T3 fibroblasts on rigid dishes; assay type: cell-based, murine; settings: 0.1, 1, or 10 μM, 18 hrs
Description: Murine fibroblast cell line 3T3 cells were cultured on rigid plastic and treated with 0.1, 1, or 10 μM WYC-209 at the time of plating and observed for 18 hrs. Cell nucleus were stained with DAPI and apoptotic cells were assayed with PI. None: medium only; DMSO: medium containing 0.1% DMSO. (a) Representative images of cells at hour 18. (b) Quantitation of cell numbers per view field at hour 18. Mean ± s.e.m.; n= 5 randomly chosen view-fields; 3 separate experiments; no significant differences were observed between groups (Student’s t-test). Scale bars, 500 μm.
as §1

[5] = pretreated with 10 µM, at least 5 days

IC50 (CYP 1A2) | IC50 (CYP 2C9) | IC50 (CYP 2C19) | IC50 (CYP 2D6) | IC50 (CYP 3A4; first 3A4 column) | IC50 (CYP 3A4; second 3A4 column) | HaCaT cell numbers on 2D rigid plastic (HaCaT cells) | HaCaT colony growth in 3D soft fibrin gel (HaCaT cells) | Inhibitory effects towards non-cancerous HaCaT cells (HaCaT cells) | IC50 lower / potency higher than that of Tazarotene (B16-F1 TRCs) | IC50 (B16-F1 TRCs) | solubility at 1 h (Water solubility) | Compound | inhibition at 10 µM (B16-F1 TRCs) | Growth after re-plating into new soft fibrin gels without compound (B16-F1 TRCs; [5]) | Growth after re-plating into new soft fibrin gels without compound (B16-F1 TRCs; pretreated with 0.1 or 1 μM) | IC50 (hERG channels) | other results
> 10 µM | > 10 µM | > 10 µM | > 10 µM | > 10 µM | > 10 µM | no reduction in cell numbers | still some colony growth | much less inhibitory effects | about 10 fold | 0.15 µM | 89.4 µM (≈ 32.9 µg/mL) | CCOC(=O)c1cnc(C#Cc2ccc3c(c2)C(C)(C)CC[S@+]3[O-])nc1 [WYC-209A] | 100% | none of the cells grew at all | some tumor cell growth | > 30 µM | 
> 10 µM | > 10 µM | > 10 µM | > 10 µM | > 10 µM | > 10 µM | no reduction in cell numbers | still some colony growth | much less inhibitory effects | about 10 fold | 0.22 µM | 88.1 µM (≈ 32.5 µg/mL) | CCOC(=O)c1cnc(C#Cc2ccc3c(c2)C(C)(C)CC[S@@+]3[O-])nc1 [WYC-209B] | 100% | none of the cells grew at all | some tumor cell growth | > 30 µM | 

Compound | IC50 (CYP 1A2) | IC50 (CYP 2C9) | IC50 (CYP 2C19) | IC50 (CYP 2D6) | IC50 (CYP 3A4; first 3A4 column) | IC50 (CYP 3A4; second 3A4 column) | HaCaT cell numbers on 2D rigid plastic (HaCaT cells) | HaCaT colony growth in 3D soft fibrin gel (HaCaT cells) | Inhibitory effects towards non-cancerous HaCaT cells (HaCaT cells) | IC50 lower / potency higher than that of Tazarotene (B16-F1 TRCs) | IC50 (B16-F1 TRCs) | solubility at 1 h (Water solubility) | inhibition at 10 µM (B16-F1 TRCs) | Growth after re-plating into new soft fibrin gels without compound (B16-F1 TRCs; [5]) | Growth after re-plating into new soft fibrin gels without compound (B16-F1 TRCs; pretreated with 0.1 or 1 μM) | IC50 (hERG channels) | other results
CCOC(=O)c1cnc(C#Cc2ccc3c(c2)C(C)(C)CC[S+]3[O-])nc1 (stereo not drawn) [WYC-209] |  |  |  |  |  |  | no reduction in cell numbers | still some colony growth | much less inhibitory effects | about 10 fold | 0.19 µM |  | 100% | none of the cells grew at all | some tumor cell growth |  | IC50 ([1]; 0 h, A2780, treated on day 0): 0.23 µM; inhibition at 10 µM ([1]; A2780, 10 μM): 100%; IC50 (human lung cancer A549; 0 h, A549, treated on day 0): 0.1 µM; inhibition at 10 µM (human lung cancer A549; A549, 10 μM): 100%; IC50 ([2]; 0 h, treated on day 0): 0.52 µM; inhibition at 10 µM ([2]; 10 μM): 100%; Mouse body weight versus control group ([3]; 0.022 or 0.22 mg kg−1): no effects on mouse weight; Toxic effects in mice / on organs ([3]; 0.022 or 0.22 mg kg−1 i.v. every two days): No abnormalities in mouse organs; also recorded: no toxic effects on mouse livers; also recorded: no toxic effects on mouse stomach; also recorded: no observable toxic or necrotic effects or weight loss; also recorded: without showing apparent toxicity; Proliferation of unselected B16-F1 cells on 2D rigid dishes [4]: completely inhibited; Impact / toxicity on non-cancerous 3T3 fibroblasts (3T3 fibroblasts): little toxicity; also recorded: little impact; Duration of effect after washout (long-lasting) (B16-F1 TRCs; melanoma TRCs re-plated in fresh medium without compound): > 5 days
